Where a name gives a salt, the structure may show the parent alone.
molecular target: human SPR (Homo sapiens (Human), UniProt P35270); test: Evaluation Example 2: Measurement of human SPR inhibitory activity (seven concentrations, sepiapterin absorbance at 420 nm); assay type: biochemical; details: Evaluation Example 2, seven concentrations 0.14 nM to 100 nM, 240 minutes at room temperature, read-out: IC50
In short: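 His-tagged full-length human SPR (1-261) was expressed in E. coli and the tag removed. Enzyme at 150 ng/mL in 100 mM Tris-HCl pH 7.5/0.01% BSA was mixed with compound (0.14–100 nM, seven points), 120 μM sepiapterin and 160 μM NADPH, both as added-solution concentrations. After 240 min at room temperature, remaining sepiapterin was read at 420 nm to give percent inhibition.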

Chain of human SPR (P35270 whole entry): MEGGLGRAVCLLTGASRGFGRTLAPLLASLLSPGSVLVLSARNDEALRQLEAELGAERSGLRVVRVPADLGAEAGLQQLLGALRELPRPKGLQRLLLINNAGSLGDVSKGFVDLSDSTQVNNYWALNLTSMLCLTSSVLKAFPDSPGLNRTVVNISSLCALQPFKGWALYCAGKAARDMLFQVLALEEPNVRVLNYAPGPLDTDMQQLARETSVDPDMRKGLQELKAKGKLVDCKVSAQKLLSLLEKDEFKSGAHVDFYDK

| Compound | IC50 [nM] |
| --- | --- |
| CC(C)Cn1c(=O)c(C(=O)NC2CC2)c(O)n2ncc(/C=C/C(=O)N3CCO[C@H](CO)C3)c12 [compound 521, (S,E)-N-Cyclopropyl-7-hydroxy-3-(3-(2-(hydroxymethyl)morpholino)-3-oxoprop-1-en-1-yl)-4-isobutyl-5-oxo-4,5-dihydropyrazolo[1,5-a]pyrimidine-6-carboxamide] | 0.59 |
| CC(C)(C)Cn1c(=O)c(C(=O)NC2CC2)c(O)n2nc(Nc3cnc(C(=O)NCC(F)(F)F)cn3)cc12 [Synthesis Example 352, N-Cyclopropyl-7-hydroxy-4-neopentyl-5-oxo-2-((5-((2,2,2-trifluoroethyl)carbamoyl)pyrazin-2-yl)amino)-4,5-dihydropyrazolo[1,5-a]pyrimidine-6-carboxamide] | 1.04 |
| CCC(N)c1cc2n(CC(C)(C)C)c(=O)c(C(=O)NC3CC3)c(O)n2n1 (racemic) [Synthesis Example 280, 2-(1-Aminopropyl)-N-cyclopropyl-7-hydroxy-4-neopentyl-5-oxo-4,5-dihydropyrazolo[1,5-a]pyrimidine-6-carboxamide hydrochloride (racemate)] | 5.64 |
| Cc1nn2c(O)c(C(=O)NC3CC3)c(=O)n(CC(C)C)c2c1/C=C/C(=O)N1CCC(C(F)F)C1 (centres unmarked) [Synthesis Example 622, (E)-N-Cyclopropyl-3-(3-(3-(difluoromethyl)pyrrolidin-1-yl)-3-oxoprop-1-en-1-yl)-7-hydroxy-4-isobutyl-2-methyl-5-oxo-4,5-dihydropyrazolo[1,5-a]pyrimidine-6-carboxamide] | 1.03 |
| Cc1nn2c(O)c(C(=O)NC3CC3)c(=O)n(CC(C)C)c2c1/C=C/C(=O)N1CCO[C@H](C)C1 [Synthesis Example 679, (R,E)-N-Cyclopropyl-7-hydroxy-4-isobutyl-2-methyl-3-(3-(2-methylmorpholino)-3-oxoprop-1-en-1-yl)-5-oxo-4,5-dihydropyrazolo[1,5-a]pyrimidine-6-carboxamide] | 0.94 |
| CC(C)Cn1c(=O)c(C(=O)NC2CC2)c(O)n2ncc(/C=C/C(=O)N3CCC[C@H]3C(N)=O)c12 [compound 486, (S,E)-3-(3-(2-Carbamoylpyrrolidin-1-yl)-3-oxoprop-1-en-1-yl)-N-cyclopropyl-7-hydroxy-4-isobutyl-5-oxo-4,5-dihydropyrazolo[1,5-a]pyrimidine-6-carboxamide] | 0.92 |
| COC(C)Cn1c(=O)c(C(=O)NC2CC2)c(O)n2ncc(/C=C/C(=O)N3CCOCC3)c12 (single isomer, unassigned) [Synthesis Example 384, (E)-N-Cyclopropyl-7-hydroxy-4-(2-methoxypropyl)-3-(3-morpholino-3-oxoprop-1-en-1-yl)-5-oxo-4,5-dihydropyrazolo[1,5-a]pyrimidine-6-carboxamide] | 0.82 |
| CCc1nn2c(O)c(C(=O)NC3CC3)c(=O)n(CC(C)C)c2c1/C=C/C(=O)N1CCC[C@@H]1C(C)(C)O [Synthesis Example 654, (R,E)-N-Cyclopropyl-2-ethyl-7-hydroxy-3-(3-(2-(2-hydroxypropan-2-yl)pyrrolidin-1-yl)-3-oxoprop-1-en-1-yl)-4-isobutyl-5-oxo-4,5-dihydropyrazolo[1,5-a]pyrimidine-6-carboxamide] | 0.95 |
| CC(C)(C)Cn1c(=O)c(C(=O)NC2CC2)c(O)n2nc(-c3cn[nH]c3C#N)cc12 [Synthesis Example 301] | 1.22 |
| CC(C)Cn1c(=O)c(C(=O)NC2CC2)c(O)n2ncc(/C=C/C(=O)N3CC(F)C3)c12 [compound 554, (E)-N-Cyclopropyl-3-(3-(3-fluoroazetidin-1-yl)-3-oxoprop-1-en-1-yl)-7-hydroxy-4-isobutyl-5-oxo-4,5-dihydropyrazolo[1,5-a]pyrimidine-6-carboxamide] | 0.77 |
| CC(C)(C)Cn1c(=O)c(C(=O)NC2CC2)c(O)n2nc(C(C)(C)O)cc12 [Synthesis Example 278, N-Cyclopropyl-7-hydroxy-2-(2-hydroxypropan-2-yl)-4-neopentyl-5-oxo-4,5-dihydropyrazolo[1,5-a]pyrimidine-6-carboxamide] | 1.87 |
| Cc1nn2c(O)c(C(=O)NC3CC3)c(=O)n(CC(C)C)c2c1/C=C/C(=O)N1CCc2cc(F)ccc21 [Synthesis Example 668, (E)-N-Cyclopropyl-3-(3-(5-fluoroindolin-1-yl)-3-oxoprop-1-en-1-yl)-7-hydroxy-4-isobutyl-2-methyl-5-oxo-4,5-dihydropyrazolo[1,5-a]pyrimidine-6-carboxamide] | 7.87 |
| CC(C)Cn1c(=O)c(C(=O)NC2CC2)c(O)n2ncc(CCc3cccnc3)c12 [Synthesis Example 250, N-Cyclopropyl-7-hydroxy-4-isobutyl-5-oxo-3-(2-(pyridin-3-yl)ethyl)-4,5-dihydropyrazolo[1,5-a]pyrimidine-6-carboxamide] | 0.88 |
| CC(C)Cn1c(=O)c(C(=O)NC2CC2)c(O)n2ncc(/C=C/C(=O)N3CCC[C@H]3C(F)(F)F)c12 [compound 484, (S,E)-N-Cyclopropyl-7-hydroxy-4-isobutyl-5-oxo-3-(3-oxo-3-(2-(trifluoromethyl)pyrrolidine-1-yl)prop-1-en-1-yl)-4,5-dihydropyrazolo[1,5-a]pyrimidine-6-carboxamide] | 1.2 |
| CC(C)(C)Cn1c(=O)c(C(=O)NC2CC2)c(O)n2nc3c(c12)CCOC(=O)N3 [Synthesis Example 401, N-Cyclopropyl-9-hydroxy-6-neopentyl-2,7-dioxo-1,2,4,5,6,7-hexahydropyrimido[1′,2′:1,5]pyrazolo[3,4-d][1,3]oxazepine-8-carboxamide] | 0.56 |
| CCCc1cnc(Nc2cc3n(CC(C)(C)C)c(=O)c(C(=O)NC4CC4)c(O)n3n2)cn1 [Synthesis Example 336, N-Cyclopropyl-7-hydroxy-4-neopentyl-5-oxo-2-((5-propylpyrazin-2-yl)amino)-4,5-dihydropyrazolo[1,5-a]pyrimidine-6-carboxamide] | 7.13 |
| Cc1nn2c(O)c(C(=O)NC3CC3)c(=O)n(CC(C)C)c2c1/C=C/C(=O)N1CC[C@H](F)C1 [compound 566, (S,E)-N-Cyclopropyl-3-(3-(3-fluoropyrrolidin-1-yl)-3-oxoprop-1-en-1-yl)-7-hydroxy-4-isobutyl-2-methyl-5-oxo-4,5-dihydropyrazolo[1,5-a]pyrimidine-6-carboxamide] | 0.94 |
| CC(C)Cn1c(=O)c(C(=O)NC2CC2)c(O)n2ncc(/C=C/C(=O)N3CCC[C@H]3C)c12 [compound 536, (R,E)-N-Cyclopropyl-7-hydroxy-4-isobutyl-3-(3-(2-methylpyrrolidine-1-yl)-3-oxoprop-1-en-1-yl)-5-oxo-4,5-dihydropyrazolo[1,5-a]pyrimidine-6-carboxamide] | 0.92 |
| CC(C)Cn1c(=O)c(C(=O)NC2CC2)c(O)n2ncc(/C=C/C(=O)N3CCC(C(C)C)CC3)c12 [compound 473, (E)-N-Cyclopropyl-7-hydroxy-4-isobutyl-3-(3-(4-isopropylpiperidin-1-yl)-3-oxoprop-1-en-1-yl)-5-oxo-4,5-dihydropyrazolo[1,5-a]pyrimidine-6-carboxamide] | 2.11 |
| CC(C)Cn1c(=O)c(C(=O)NC2CC2)c(O)n2ncc(C(=O)N[C@@H](C)c3ccccn3)c12 [Synthesis Example 218, (S)-N6-Cyclopropyl-7-hydroxy-4-isobutyl-5-oxo-N3-(1-(pyridin-2-yl)ethyl)-4,5-dihydropyrazolo[1,5-a]pyrimidine-3,6-dicarboxamide] | 0.89 |
| CC(C)Cn1c(=O)c(C(=O)NC2CC2)c(O)n2ncc(/C=C/C(=O)N3CCC(C(F)F)CC3)c12 [compound 466, (E)-N-Cyclopropyl-3-(3-(4-(difluoromethyl)piperidin-1-yl)-3-oxoprop-1-en-1-yl)-7-hydroxy-4-isobutyl-5-oxo-4,5-dihydropyrazolo[1,5-a]pyrimidine-6-carboxamide] | 1.27 |

same assay, conditions: sepiapterin absorbance, Table 41, read-out: concentration at 50% inhibition of human SPR (IC50)

| Compound | IC50 [nM] |
| --- | --- |
| CC(C)Cn1c(=O)c(C(=O)NC2CC2)c(O)n2ncc(/C=C/C(=O)N3CC4CCC(C3)C4(F)F)c12 [Synthesis Example 720, (E)-N-Cyclopropyl-3-(3-(8,8-difluoro-3-azabicyclo[3.2.1]octan-3-yl)-3-oxoprop-1-en-1-yl)-7-hydroxy-4-isobutyl-5-oxo-4,5-dihydropyrazolo[1,5-a]pyrimidine-6-carboxamide] | 1.03 |
| CC(C)Cn1c(=O)c(C(=O)NC2CC2)c(O)n2ncc(/C=C/C(=O)N3C[C@H]4COC[C@H]4C3)c12 [Synthesis Example 708, N-Cyclopropyl-7-hydroxy-4-isobutyl-5-oxo-3-((E)-3-oxo-3-((3aR,6aS)-tetrahydro-1H-furo[3,4-c]pyrrol-5(3H)-yl)prop-1-en-1-yl)-4,5-dihydropyrazolo[1,5-a]pyrimidine-6-carboxamide] | 0.74 |
| Cc1nn2c(O)c(C(=O)NC3CC3)c(=O)n(CC(C)C)c2c1/C=C/C(=O)N1CC[C@@H](C(C)(C)O)C1 [Synthesis Example 700, (R,E)-N-Cyclopropyl-7-hydroxy-3-(3-(3-(2-hydroxypropan-2-yl)pyrrolidin-1-yl)-3-oxoprop-1-en-1-yl)-4-isobutyl-2-methyl-5-oxo-4,5-dihydropyrazolo[1,5-a]pyrimidine-6-carboxamide] | 0.96 |
| CC(C)Cn1c(=O)c(C(=O)NC2CC2)c(O)n2ncc(/C=C/C(=O)N3CCN(C)C[C@@H]3C)c12 [Synthesis Example 713, (S,E)-N-Cyclopropyl-3-(3-(2,4-dimethylpiperazin-1-yl)-3-oxoprop-1-en-1-yl)-7-hydroxy-4-isobutyl-5-oxo-4,5-dihydropyrazolo[1,5-a]pyrimidine-6-carboxamide] | 0.96 |
| CC(C)Cn1c(=O)c(C(=O)NC2CC2)c(O)n2ncc(/C=C/C(=O)N3CCN(CC4CC(F)(F)C4)C[C@H]3C)c12 [Synthesis Example 745, (R,E)-N-Cyclopropyl-3-(3-(4-((3,3-difluorocyclobutyl)methyl)-2-methylpiperazin-1-yl)-3-oxoprop-1-en-1-yl)-7-hydroxy-4-isobutyl-5-oxo-4,5-dihydropyrazolo[1,5-a]pyrimidine-6-carboxamide] | 1.85 |

Reference: patent publication US20240092784A1, “CONDENSED HETEROCYCLIC COMPOUND” (NISSAN CHEMICAL CORPORATION, priority 2020, published 2024)
